In patent US20240116891A1, “MARALIXIBAT SOLID FORMS, INTERMEDIATES AND PROCESSES OF MAKING SAME” (MIRUM PHARMACEUTICALS, INC., priority 2022, published 2024):

Columns and labels:
Format in all cases: physicochemical
[1] = Polymorph screening (stability of solid forms); details: for Relative stability of solid form in polymorph screening: under the conditions tested in this study
Protocol: Form B was obtained from anti-solvent addition experiment with ACN/water from Form A. Form B was observed only as a wet cake, which convers back to Form A when air-dried. The XRPD, TGA/DSC, and PLM characterizations with the same parameters described above were performed. […] (FIG. 5). The weight loss started immediately with heat applied and it stopped 75° C.
(§1) The approximate solubility of compound of Formula I (starting material, prepared as described above) was measured at RT in 20 different solvents. Approximately 2 mg of starting material were added into a 3-mL glass vial. Solvents were then added step wise into the vials until the solids were dissolved or a total volume of 1 mL was reached (Note: this is not thermodynamic solubility estimation, vortex and sonication were applied in between each solvent to accelerate the dissolution). Results summarized in Table 3-1 were used to guide the solvent selection for the polymorph screening. Beginning with the starting material, polymorph screening experiments were set up using methods of Slurry at different temperatures, Slow Cooling, Liquid and Solid Vapor Diffusion, Slow Evaporation, Anti-Solvent Addition and Ionic Liquid. The methods utilized, and crystal forms identified are summarized in Table 3-2 (Type A and Form A are used interchangeably and Type B and Form B are used interchangeably).
As described above, polymorph screening experiments were set up using methods of Slurry at different temperatures, Slow Cooling, Liquid and Solid Vapor Diffusion, Slow Evaporation, Anti-Solvent Addition, and Ionic Liquid. Two types, Form A (anhydrate) and Form B (weak solvate) were obtained from the experiments.
Further investigation was performed for Form B to better understand the phase origin.
Other than Form B (i.e., Type B), no additional polymorph was observed during the rest of the screening. […]
The approximate solubility of compound of Formula II (starting material) was determined at RT in 20 different solvents. […]
The molecular structure was determined by single crystal X-ray diffraction.

[2] = Characterization of anhydrate Form II of compound of Formula III
Protocol: Anhydrate Form II of compound of Formula III was characterized by XRPD, TGA, DSC and HPLC. As shown in XRPD result (FIG. 11), the sample was crystalline and conformed to Form II. Its HPLC purity was determined to be 99.78 area %. […] (onset temperature) in DSC were observed. […] Form II is the stable form of compound of Formula III.

[3] = Approximate solubility of starting material at RT in 20 solvents
Protocol: as §1
The approximate solubility of compound of Formula II (starting material) was determined at RT in 20 different solvents. Approximately 2 mg of the material were added into a 2-mL glass vial. Solvents were then added step into the vials until the solids were dissolved or a total volume of 1 mL was reached (Note: this is not a thermodynamic solubility estimation; vortex and sonication were applied in between each solvent addition to accelerate the dissolution). Results summarized in Table 5-1 were used to guide the solvent selection for the polymorph screening. Beginning with the starting material, polymorph screening experiments were set up using methods of Slurry at different temperatures, Slow Cooling, Liquid and Solid Vapor Diffusions, Slow Evaporation, Anti-Solvent Addition, and Ionic Liquid. No new polymorphs were observed during the screening. Type X and Form X are used interchangeably.

[4] = Long-term stability study of compound of Formula I, 25° C./60% RH
Protocol: Long-term and accelerated stability studies were performed as below using the compound of Formula I prepared as described in Example 2.1.
Tests include appearance, purity by HPLC, assay by HPLC, chiral purity by HPLC, and water by KF titration. […]

[5] = Heat and light stressed stability of compound of Formula I in 95/5 (v/v) acetonitrile/isopropanol solution; details: for Purity, Chemical / Purity, Chiral: solution
Protocol: In addition, the stressed stability in 95/5 (v/v) acetonitrile /isopropanol solutions was also evaluated (e.g., during the SMB separation and successive work-up). Samples were stored under two different conditions over a period of 10 days: exposed to light at room temperature and in an oven at 60° C.

[6] = DVS test of compound of Formula I
[7] = Wet cake drying study on compound of Formula II
Protocol: The wet cake drying study on compound of Formula II was carried out on a sample (98.67% purity of compound of Formula II) in an open dish held at 40° C. under vacuum. The sample was analyzed after one week (98.79% purity of compound of Formula II) and since the sample was stable, the study was extended another month. […] (98.74% purity of compound of Formula II).

[8] = organic solvent or mixture, ACN
[9] = organic solvent or mixture, Acetone
[10] = organic solvent or mixture, Cyclohexane
[11] = organic solvent or mixture, DCM
[12] = organic solvent or mixture, DMF
[13] = organic solvent or mixture, DMSO
[14] = organic solvent or mixture, EtOAc
[15] = organic solvent or mixture, EtOH
[16] = organic solvent or mixture, IPA
[17] = organic solvent or mixture, IPAc
[18] = organic solvent or mixture, MIBK
[19] = organic solvent or mixture, MTBE
[20] = organic solvent or mixture, MeOH
[21] = organic solvent or mixture, MeTHF
[22] = organic solvent or mixture, NMP
[23] = organic solvent or mixture, Pentane
[24] = organic solvent or mixture, Toluene
[25] = organic solvent or mixture, n-Butyl Acetate
[26] = organic solvent or mixture, n-Heptane

CCCCC1(CCCC)CS(=O)(=O)c2ccc(N(C)C)cc2[C@@H](c2ccc(OC)cc2)[C@H]1O [Form A, (4R,5R)-3,3-dibutyl-7-(dimethylamino)-4-hydroxy-5-(4-methoxyphenyl)-2,3,4,5-tetrahydrobenzo[b]thiepine 1,1-dioxide]
Relative stability of solid form in polymorph screening [1]: most stable form

CCCCC1(CCCC)CS(=O)(=O)c2ccc(N(C)C)cc2[C@@H](c2ccc(OC)cc2)[C@H]1O [Form B, (4R,5R)-3,3-dibutyl-7-(dimethylamino)-4-hydroxy-5-(4-methoxyphenyl)-2,3,4,5-tetrahydrobenzo[b]thiepine 1,1-dioxide]
Solid form after air-drying of the wet cake (XRPD) ([1]; air-dried overnight): converted back to Form A

CCCCC1(CCCC)CS(=O)(=O)c2ccc(N(C)C)cc2[C@@H](c2ccc(OCc3ccc(C[N+]45CCN(CC4)CC5)cc3)cc2)[C@H]1O.[Cl-] [Form II, 1-(4-((4-((4R,5R)-3,3-dibutyl-7-(dimethylamino)-4-hydroxy-1,1-dioxido-2,3,4,5-tetrahydrobenzo[b]thiepin-5-yl)phenoxy)methyl)benzyl)-1,4-diazabicyclo[2.2.2] octan-1-ium chloride]
Stability of solid form [2]: stable form

CCCCC1(CCCC)CS(=O)(=O)c2ccc(N(C)C)cc2[C@@H](c2ccc(O)cc2)[C@H]1O [Form X, (4R,5R)-3,3-dibutyl-7-(dimethylamino)-4-hydroxy-5-(4-hydroxyphenyl)-2,3,4,5-tetrahydrobenzo[b]thiepine 1,1-dioxide]
Relative stability of solid form in polymorph screening [1]: most stable form

CCCCC1(CCCC)CS(=O)(=O)c2ccc(N(C)C)cc2[C@@H](c2ccc(OC)cc2)[C@H]1O [Formula I, (4R,5R)-3,3-dibutyl-7-(dimethylamino)-4-hydroxy-5-(4-methoxyphenyl)-2,3,4,5-tetrahydrobenzo[b]thiepine 1,1-dioxide]
solubility [3, 8]: > 44 mg/mL | solubility [3, 9]: > 54 mg/mL | solubility [3, 10]: < 2 mg/mL | solubility [3, 11]: > 58 mg/mL | solubility [3, 12]: > 48 mg/mL | solubility [3, 13]: > 50 mg/mL | solubility [3, 14]: > 40 mg/mL | solubility [3, 15]: 27 to 54 mg/mL | solubility [3, 16]: 7.3 to 22 mg/mL | solubility [3, 17]: 24 to 48 mg/mL | solubility [3, 18]: > 50 mg/mL | solubility [3, 19]: 9.3 to 28 mg/mL | solubility [3, 20]: 29 to 58 mg/mL | solubility [3, 21]: > 56 mg/mL | solubility [3, 22]: > 46 mg/mL | solubility [3, 23]: < 2.7 mg/mL | solubility [3, 24]: > 54 mg/mL | solubility [3, 25]: > 56 mg/mL | solubility [3, 26]: < 2.8 mg/mL | solubility ([3]; water, H2O): < 2.3 mg/mL | Appearance (Color, morphology) ([4]; 0 months): Off-white | HPLC Assay ([4]; 0 months): 95.5% w/w | HPLC Purity ([4]; 0 months): 99.6% a/a | HPLC Purity - Chiral ([4]; 0 months): 100.0% a/a | Water by KF Titration ([4]; 0 months): <0.1% w/w | Appearance (Color, morphology) ([4]; 3 months): Off-white | HPLC Assay ([4]; 3 months): 96.3% w/w | HPLC Purity ([4]; 3 months): 99.9% a/a | HPLC Purity - Chiral ([4]; 3 months): 100.0% a/a | Water by KF Titration ([4]; 3 months): <0.1% w/w | Appearance (Color, morphology) ([4]; 6 months): Off-white | HPLC Assay ([4]; 6 months): 96.4% w/w | HPLC Purity ([4]; 6 months): 99.8% a/a | HPLC Purity - Chiral ([4]; 6 months): 100.0% a/a | Water by KF Titration ([4]; 6 months): <0.1% w/w | Appearance (Color, morphology) ([4]; 12 months): Off-white | HPLC Assay ([4]; 12 months): 96.5% w/w | HPLC Purity ([4]; 12 months): 99.8% a/a | HPLC Purity - Chiral ([4]; 12 months): 100.0% a/a | Water by KF Titration ([4]; 12 months): <0.1% w/w | Stability (chemical and chiral purity) for SMB operation and work-up ([5]; 95/5 (v/v) acetonitrile/isopropanol, 10 days, light at RT or 60° C.): adequate stability | Purity, Chemical ([5]; RT (light), Day 0): 99.4 % a/a | Purity, Chiral ([5]; RT (light), Day 0): 99.6 % a/a | Purity, Chemical ([5]; RT (light), Day 3): 99.4 % a/a | Purity, Chiral ([5]; RT (light), Day 3): 99.6 % a/a | Purity, Chemical ([5]; RT (light), Day 7): 99.4 % a/a | Purity, Chiral ([5]; RT (light), Day 7): 99.7 % a/a | Purity, Chemical ([5]; RT (light), Day 10): 99.4 % a/a | Purity, Chiral ([5]; RT (light), Day 10): 99.4 % a/a | Purity, Chemical ([5]; T = 60° C., Day 0): 99.3 % a/a | Purity, Chiral ([5]; T = 60° C., Day 0): 99.7 % a/a | Purity, Chemical ([5]; T = 60° C., Day 3): 98.7 % a/a | Purity, Chiral ([5]; T = 60° C., Day 3): 99.5 % a/a | Purity, Chemical ([5]; T = 60° C., Day 7): 98.5 % a/a | Purity, Chiral ([5]; T = 60° C., Day 7): 99.8 % a/a | Purity, Chemical ([5]; T = 60° C., Day 10): 98.5 % a/a | Purity, Chiral ([5]; T = 60° C., Day 10): 99.7 % a/a | Form transition before and after DVS test [6]: no form transition observed | Hygroscopicity by DVS [6]: Non-hygroscopic

CCCCC1(CCCC)CS(=O)(=O)c2ccc(N(C)C)cc2[C@@H](c2ccc(O)cc2)[C@H]1O [Formula II, (4R,5R)-3,3-dibutyl-7-(dimethylamino)-4-hydroxy-5-(4-hydroxyphenyl)-2,3,4,5-tetrahydrobenzo[b]thiepine 1,1-dioxide]
solubility [3, 8]: 2.9 to 9.7 mg/mL | solubility [3, 9]: 26 to 52 mg/mL | solubility [3, 10]: < 2 mg/mL | solubility [3, 11]: 8.7 to 26 mg/mL | solubility [3, 12]: > 40 mg/mL | solubility [3, 13]: > 44 mg/mL | solubility [3, 14]: 20 to 40 mg/mL | solubility [3, 15]: 2.7 to 9.3 mg/mL | solubility [3, 16]: 2.6 to 8.7 mg/mL | solubility [3, 17]: 7.7 to 23 mg/mL | solubility [3, 18]: 21 to 43 mg/mL | solubility [3, 19]: 2.4 to 8 mg/mL | solubility [3, 20]: 7.3 to 22 mg/mL | solubility [3, 21]: 21 to 42 mg/mL | solubility [3, 22]: > 44 mg/mL | solubility [3, 23]: < 2.7 mg/mL | solubility [3, 24]: < 2.8 mg/mL | solubility [3, 25]: 8.3 to 25 mg/mL | solubility [3, 26]: < 2 mg/mL | solubility ([3]; water, H2O): < 2 mg/mL | Purity of compound of Formula II ([7]; open dish, 40° C. under vacuum, after one week): 98.79% | Purity of compound of Formula II ([7]; open dish, 40° C. under vacuum, study extended another month): 98.74% | Hold time of the solid ([7]; under vacuum at 40° C.): at least a month | Purity of compound of Formula II ([7]; wet cake sample at start of study): 98.67%
